Activity calls are given as the source filed them. The calls are words filed in the database; no cut-off is given here.
Tests used:
[1] = target: Receptor-type tyrosine-protein kinase FLT3 (Homo sapiens, UniProt P36888, ITD); experiment: Inhibition of FLT3 ITD mutant (unknown origin) incubated for 30 mins in presence of ATP by mobility shift assay
[2] = target: Vascular endothelial growth factor receptor 2 (Homo sapiens, UniProt P35968); experiment: Inhibition of VEGFR2 (unknown origin) incubated for 30 mins in presence of ATP by mobility shift assay
Chain of Vascular endothelial growth factor receptor 2 (P35968 whole entry): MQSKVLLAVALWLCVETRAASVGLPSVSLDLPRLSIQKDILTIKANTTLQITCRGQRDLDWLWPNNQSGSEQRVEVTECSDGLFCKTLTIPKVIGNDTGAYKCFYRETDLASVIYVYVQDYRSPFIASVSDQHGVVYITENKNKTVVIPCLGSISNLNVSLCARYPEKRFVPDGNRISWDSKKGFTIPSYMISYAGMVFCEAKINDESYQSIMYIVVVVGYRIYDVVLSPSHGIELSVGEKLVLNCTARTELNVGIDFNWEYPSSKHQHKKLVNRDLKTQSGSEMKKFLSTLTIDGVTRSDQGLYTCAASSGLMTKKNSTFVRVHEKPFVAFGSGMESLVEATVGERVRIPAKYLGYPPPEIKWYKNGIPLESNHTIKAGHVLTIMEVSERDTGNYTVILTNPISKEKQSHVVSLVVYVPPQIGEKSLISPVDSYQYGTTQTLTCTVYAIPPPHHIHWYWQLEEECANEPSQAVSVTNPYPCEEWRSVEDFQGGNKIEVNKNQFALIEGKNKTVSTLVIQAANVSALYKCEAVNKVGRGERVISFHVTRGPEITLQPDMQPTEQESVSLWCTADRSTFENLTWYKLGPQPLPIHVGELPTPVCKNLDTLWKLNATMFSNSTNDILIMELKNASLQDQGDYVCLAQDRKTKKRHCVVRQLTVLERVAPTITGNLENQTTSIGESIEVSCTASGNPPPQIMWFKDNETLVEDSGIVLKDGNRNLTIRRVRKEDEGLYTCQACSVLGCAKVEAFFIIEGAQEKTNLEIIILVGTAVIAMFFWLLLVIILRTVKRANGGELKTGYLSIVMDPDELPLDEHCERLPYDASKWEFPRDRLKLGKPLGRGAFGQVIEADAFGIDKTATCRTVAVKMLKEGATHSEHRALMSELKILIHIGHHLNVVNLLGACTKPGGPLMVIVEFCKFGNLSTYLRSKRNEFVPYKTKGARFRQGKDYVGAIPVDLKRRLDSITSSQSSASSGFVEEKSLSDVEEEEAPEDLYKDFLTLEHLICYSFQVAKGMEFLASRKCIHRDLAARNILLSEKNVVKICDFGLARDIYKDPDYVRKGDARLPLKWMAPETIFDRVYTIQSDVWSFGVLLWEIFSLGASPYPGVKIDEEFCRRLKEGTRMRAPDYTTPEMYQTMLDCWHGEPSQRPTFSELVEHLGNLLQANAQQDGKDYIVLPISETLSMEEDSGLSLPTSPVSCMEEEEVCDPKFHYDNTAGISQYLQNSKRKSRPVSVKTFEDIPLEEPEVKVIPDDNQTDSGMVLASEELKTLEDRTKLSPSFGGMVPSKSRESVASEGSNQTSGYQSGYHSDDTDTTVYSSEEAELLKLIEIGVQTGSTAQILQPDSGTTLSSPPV

[3] = tested on: Receptor-type tyrosine-protein kinase FLT3 (Homo sapiens), P36888 [D835H]; experiment: Binding affinity to FLT3 D835H mutant (unknown origin) at 1000 nM relative to control
[4] = tested on: Receptor-type tyrosine-protein kinase FLT3 (Homo sapiens), P36888 [K663Q]; experiment: Binding affinity to FLT3 K663Q mutant (unknown origin) at 1000 nM relative to control
[5] = species: Homo sapiens; experiment: Binding affinity to FLT3 ITD D835V mutant (unknown origin) at 1000 nM relative to control
[6] = tested on: HL-60; experiment: Antiproliferative activity against human HL-60 cells measured after 72 hrs by CCK8 assay; type: functional, cell-based; settings: HL-60, 72 h
[7] = tested on: U-937; experiment: Antiproliferative activity against human U-937 cells measured after 72 hrs by CCK8 assay; type: functional, cell-based; settings: U-937, 72 h
[8] = tested on: HCT-116; experiment: Antiproliferative activity against human HCT116 cells measured after 72 hrs by CCK8 assay; type: functional, cell-based; settings: HCT-116, 72 h
[9] = tested on: MOLM-13; experiment: Antiproliferative activity against human quizartinib-resistant MOLM-13 cells at 333 nM incubated for 72 hrs by CCK8 assay relative to control; type: functional
[10] = tested on: MV4-11; experiment: Induction of cell cycle arrest in human MV4-11 cells assessed as accumulation at sub-G1 phase at 10 nM incubated for 24 hrs by flow cytometry (reference value: […]%); type: functional
[11] = tested on: MOLM-13; experiment: Induction of cell cycle arrest in human MOLM-13 cells assessed as accumulation at G2/M phase at 1 nM incubated for 24 hrs by flow cytometry (reference value: […]); type: functional
[12] = tested on: MOLM-13; experiment: Induction of apoptosis in human MOLM-13 cells assessed as viable cells at 10 nM incubated for 24 hrs by flow cytometry (reference value: 92.83%); type: functional; settings: read-out: Activity
[13] = target: Receptor-type tyrosine-protein kinase FLT3 (Homo sapiens) (UniProt P36888); experiment: Inhibition of FLT3 in human MV4-11 cells assessed as reduction in STAT5 phosphorylation at 10 uM incubated for 2 hrs by Western blot analysis; type: cell-based
[14] = target: Receptor-type tyrosine-protein kinase FLT3 (Homo sapiens) (UniProt P36888); experiment: Inhibition of FLT3 in human MV4-11 cells assessed as reduction in ERK phosphorylation at 10 uM incubated for 2 hrs by Western blot analysis; type: cell-based
[15] = target: Receptor-type tyrosine-protein kinase FLT3 (Homo sapiens) (UniProt P36888); experiment: Inhibition of FLT3 in human MOLM-13 cells assessed as reduction in STAT5 phosphorylation incubated for 2 hrs by Western blot analysis; type: cell-based
[16] = AUC (0 to last) in Sprague-Dawley rat at 10 mg/kg, po; type: ADME, organism-based; design: route oral, time 0 - last, dose 10 mg/kg; settings: in vivo
[17] = tested on: MV4-11; experiment: Antitumor activity against human MV4-11 cells xenografted in po dosed mouse assessed as tumor growth inhibition administered for 20 days measured once every 2 days; type: functional, organism-based; settings: time 20.0 day
[18] = tested on: MOLM-13; experiment: Antitumor activity against human MOLM-13 cells xenografted in po dosed mouse assessed as tumor growth inhibition administered for 20 days measured once every 2 days; type: functional, organism-based; settings: time 20.0 day
[19] = tested on: MV4-11; experiment: Antitumor activity against human MV4-11 cells xenografted in mouse assessed as tumor growth inhibition at 2.5 mg/kg, po administered for 20 days measured once every 2 days relative to control; type: functional; settings: MV4-11, po, 480 h, time 20 day, read-out: TGI
[20] = tested on: MOLM-13; experiment: Antitumor activity against human MOLM-13 cells xenografted in mouse assessed as tumor regression at 40 mg/kg, po administered for 16 days measured on day 4 relative to control; type: functional; settings: time 16 day
[21] = tested on: MOLM-13; experiment: Antitumor activity against human MOLM-13 cells xenografted in po dosed mouse assessed as induction of apoptosis administered for 16 days measured once for every 2 days by caspase3 staining based immunohistochemical analysis; type: functional, organism-based; settings: time 16.0 day
[22] = Toxicity in mouse xenografted with human MV4-11 cells assessed as effect on heart at 2.5 to 10 mg/kg, po administered for 16 days by hematoxylin and eosin staining based assay; type: organism-based; settings: in vivo, 384 h, dose 2.5-10 mg/kg, time 16 day
[23] = Toxicity in mouse xenografted with human MV4-11 cells assessed as effect on lung at 2.5 to 10 mg/kg, po administered for 16 days by hematoxylin and eosin staining assay; type: organism-based; settings: in vivo, 384 h, dose 2.5-10 mg/kg, time 16 day
[24] = Toxicity in mouse xenografted with human MV4-11 cells assessed as effect on kidney at 2.5 to 10 mg/kg, po administered for 16 days by hematoxylin and eosin staining assay; type: organism-based; settings: in vivo, 384 h, dose 2.5-10 mg/kg, time 16 day
[25] = Toxicity in mouse xenografted with human MOLM-13 cells assessed as effect on kidney at 10 to 40 mg/kg, po administered for 20 days by hematoxylin and eosin staining assay; type: organism-based; settings: in vivo, 480 h, dose 10-40 mg/kg, time 20 day
[26] = Toxicity in mouse xenografted with human MOLM-13 cells assessed as effect on lung at 10 to 40 mg/kg, po administered for 20 days by hematoxylin and eosin staining assay; type: organism-based; settings: in vivo, 480 h, dose 10-40 mg/kg, time 20 day

IC50 [1]: 0.0008 µM
IC50 [2]: 0.137 µM
Activity [3]: Active
Activity [4]: Active
Activity [5]: Active
IC50 [6]: 4.72 µM
IC50 [7]: 5.26 µM
IC50 [8]: 3.98 µM
Activity [13]: Active
Activity [14]: Active
Activity [15]: Dose-Dependent Effect
AUC(0-t) [16]: 21200 ng·h/mL
Compound: Cc1c(NC(=O)CCN2CCCC2)c[nH]c1/C=C1\C(=O)Nc2ccc(F)cc21
Activity [9]: 13.4%
Activity [10]: 28.68%
Activity [11]: 7.13%
viability at 0.01 µM [12]: 62.3%
Activity [17]: Dose-Dependent Effect
Activity [18]: Dose-Dependent Effect
inhibition in vivo at 2.5 mg/kg [19]: 55.7%
Activity [20]: 100%
Activity [21]: Dose-Dependent Effect
Activity [22]: Non-Toxic
Activity [23]: Non-Toxic
Activity [24]: Non-Toxic
Activity [25]: Non-Toxic
Activity [26]: Non-Toxic

— ChEMBL document CHEMBL4823252 (J Med Chem, 2021)
